Data as given in patent US6933131B2, “Nucleic acids encoding insect acetylcholine receptor subunits” (Bayer Aktiengesellschaft, priority 1998, dated 2005).

Test system: acetylcholine receptors according to the invention (recombinantly modified HEK293 cells of Example 2)
Conditions: nicotine final concentration 500 μM; HEK293 cells expressing the α subunit of an L-type Ca channel, recombinantly modified as in Example 2; FIG. 1
Method: Cells were loaded with Fura-2-acetoxymethyl ester (5-10 μM in serum-free minimal essential medium containing 1% bovine serum albumin and 5 mM calcium chloride), washed with Tyrode solution buffered with N-(2-hydroxyethyl)piperazine-N′-(2-ethanesulphonic acid) (5 mM HEPES) and alternately illuminated, under a fluorescence microscope (Nikon Diaphot) with light of 340 nm and 380 nm wavelength. A measurement point corresponds to a pair of video images at the two wavelengths (exposure time per image, 100 ms). The time interval between two measurement points is 3 s. […] The fluorescence intensity of the cells when illuminated with light of 380 nm wavelength was divided by the corresponding intensity at 340 nm, thereby giving the ratio.
HEK293 cells, which express the α subunit of an L-type Ca channel (Zong et al. 1995, Stetzer et al. 1996), were cultured in Dulbecco's modified Eagle's medium and 10% foetal calf serum at 5% CO2 and from 20° C. to 37° C. […] Individual resistant clones were analyzed as described below.
The alterations in the intracellular calcium concentration were measured using Fura-2. […] 100 μl Tyrode buffer were added to the wells of the microtitre plate and the cells were illuminated alternately, under a fluorescence microscope (Nikon Diaphot), with light of 340 nm and 380 nm wavelength. […]

CN1CCCC1c1cccnc1 (stereo not shown) [nicotine]
change in intracellular calcium (Fura-2 fluorescence ratio 380 nm/340 nm) following the addition of nicotine: increase in intracellular calcium
